Data reported in patent publication US5472954A, “Cyclodextrin complexation” (priority 1993, dated 1995).
≈ marks a conversion by molar mass, not a printed value.

Columns and labels:
physchem [1] = experiment: physchem
physchem [2] = experiment: physchem; remark: listed apart in the source
[3] = Solubility of various drugs: effect of CMC in aqueous HPβCD solutions (Example 1)
[4] = Effect of PVP on the solubilization of drugs in aqueous HPβCD solutions (Example 7)
physchem [5] = experiment: physchem; remark: listed apart in the source
Protocol: An excess amount of the compound to be tested was added to each solvent and the suspensions which formed were heated in sealed containers to 120° C. The solubility of salicylic acid was determined in acidic (HCl) solution.

physchem [6] = conditions: 10% heβcd
physchem [7] = experiment: physchem; remark: listed apart in the source
[8] = Effect of previously prepared solid HPβCD-polymer complexing agent on solubility (Example 13); format: physicochemical
Protocol: The resultant solutions were heated in sealed containers to 120° C. and maintained at that temperature for 30 minutes, then were lyophilized. The solids thus obtained were ground with a mortar and pestle.
The solid cyclodextrin/polymer products were reconstituted with water to afford solutions containing 9.88% (w/v) HPβCD and 0.12% (w/v) PVP, 0.12% (w/v) or CMC 0.12% (w/v) HPMC. The solubilities (S) of three drugs in these solutions and in an aqueous solution containing 10% (w/v) HPβCD without added polymer were then determined as follows:
An excess amount of each drug was added to each of the four cyclodextrin solutions and the solutions were sonicated in an ultrasonic bath for 3 hours, then allowed to equilibrate for 60 hours at room temperature (23° C.). […] However, by separate preparation of the cyclodextrin/polymer complexing agent as illustrated here, one can readily avoid heating drugs which are unstable at elevated temperature.

[9] = ΔH, ΔS and stability constant (Kc) of drug-HPβCD MS 0.6 complexes, effect of PVP (Example 17); format: physicochemical; conditions: HPβCD MS 0.6 complex
Protocol: The effect of polyvinylpyrrolidone (PVP) on the enthalpy (ΔH) and the entropy (ΔS) of the stability constant (Kc) of the drug-cyclodextrin complex was determined.
An excess amount of the drug was added to water containing 0, 0.1, 0.25 or 0.5% (w/v) PVP and various amounts of HPβCD or HPαCD.

Q: Which results are given for `Clc1ccccc1C(c1ccccc1)(c1ccccc1)n1ccnc1` [Clotrimazole, clotrimazole]?
A: solubility (physchem [1]; 0.25% cmc + 10% hpbetacd): 1400 µg/mL; solubility (physchem [1]; aqueous 10% hpbetacd): 1200 µg/mL (≈ 3.48 mM); solubility at 72 h (physchem [2]; 0.25% pvp, 10% hpβcd): 1800 µg/mL (≈ 5.22 mM); solubility at 72 h (physchem [2]; 10% hpβcd ms 0.7): 1200 µg/mL (≈ 3.48 mM)

Q: What does the source list for `CC(=O)[C@H]1CC[C@H]2[C@@H]3CCC4=CC(=O)CC[C@]4(C)[C@H]3CC[C@]12C` [Progesterone, progesterone]?
A: S4 /S3 ([3]; 0.25% CMC + 10% HPβCD vs 10% HPβCD): 1.52; solubility ([3]; 0.25% cmc + 10% hpbetacd): 6110 µg/mL; solubility ([3]; aqueous 10% hpbetacd): 4030 µg/mL (≈ 12.8 mM); solubility at 72 h ([4]; 0.25% pvp, 10% hpβcd): 5710 µg/mL (≈ 18.2 mM); solubility at 72 h ([4]; 10% hpβcd ms 0.7): 4760 µg/mL (≈ 15.1 mM); S4 /S3 ([4]; with vs without 0.25% PVP): 1.20

Q: For `CC(C)(O)C(Cl)(Cl)Cl` [Chlorbutol], which solubility (physchem [5]; 0.25% hpmc + 10% hpβcd) is on record?
A: 29900 µg/mL

Q: And the solubility (physchem [5]; aqueous 0.25% cmc)?
A: 8410 µg/mL (≈ 47.4 mM)

Q: What about the solubility (physchem [5]; aqueous 0.25% cmc, 10% hpβcd) of the same molecule?
A: 29300 µg/mL (≈ 165 mM)

Q: What about the solubility (physchem [5]; aqueous 0.25% hpmc) of the same molecule?
A: 8150 µg/mL (≈ 45.9 mM)

Q: What about the solubility (physchem [5]; aqueous 0.25% pvp) of the same molecule?
A: 8410 µg/mL (≈ 47.4 mM)

Q: And the solubility (physchem [5]; aqueous 10% hpβcd)?
A: 28600 µg/mL (≈ 161 mM)

Q: What about the solubility (physchem [5]; water) of the same molecule?
A: 8110 µg/mL (≈ 45.7 mM)

Q: Which results are given for `Cc1nnc2n1-c1ccc(Cl)cc1C(c1ccccc1)=NC2` [Alprazolam]?
A: solubility (physchem [1]; 0.25% cmc + 10% hpbetacd): 1550 µg/mL; solubility (physchem [1]; aqueous 0.25% cmc): 180 µg/mL (≈ 0.583 mM); solubility (physchem [1]; aqueous 10% hpbetacd): 1280 µg/mL (≈ 4.15 mM); solubility (physchem [1]; water): 70 µg/mL (≈ 0.227 mM)

Q: For `Clc1ccc(COC(Cn2ccnc2)c2ccc(Cl)cc2Cl)c(Cl)c1` (centres unmarked) [Miconazole, miconazole], which solubility (physchem [1]; 0.25% cmc + 10% hpbetacd) is on record?
A: 2500 µg/mL

Q: What about the solubility (physchem [1]; aqueous 0.25% cmc) of the same molecule?
A: 60 µg/mL (≈ 0.144 mM)

Q: What about the solubility (physchem [1]; aqueous 10% hpbetacd) of the same molecule?
A: 1980 µg/mL (≈ 4.76 mM)

Q: What about the solubility (physchem [1]; water) of the same molecule?
A: 40 µg/mL (≈ 0.0961 mM)

Q: And the solubility at 72 h (physchem [6]; 0.25% cmc)?
A: 3310 µg/mL (≈ 7.95 mM)

Q: What about the solubility at 72 h (physchem [6]) of the same molecule?
A: 2510 µg/mL (≈ 6.03 mM)

Q: And the solubility at 72 h (physchem [2]; 0.25% pvp, 10% hpβcd)?
A: 3400 µg/mL (≈ 8.17 mM)

Q: What about the solubility at 72 h (physchem [2]; 10% hpβcd ms 0.7) of the same molecule?
A: 2360 µg/mL (≈ 5.67 mM)

Q: What about the solubility at 72 h (physchem [2]; aqueous 0.25% pvp) of the same molecule?
A: 200 µg/mL (≈ 0.481 mM)

Q: And the solubility at 72 h (physchem [2]; water)?
A: 40 µg/mL (≈ 0.0961 mM)

Q: And the solubility (physchem [7]; 0.25% cmc in water)?
A: 60 µg/mL (≈ 0.144 mM)

Q: What about the solubility (physchem [7]; 0.25% cmc, 10% hpbcd) of the same molecule?
A: 2500 µg/mL (≈ 6.01 mM)

Q: What about the solubility (physchem [7]; 10% ethanol in water, organic solvent or mixture) of the same molecule?
A: 310 µg/mL (≈ 0.745 mM)

Q: And the solubility (physchem [7]; 10% ethanol, 10% hpbcd, organic solvent or mixture)?
A: 2220 µg/mL (≈ 5.33 mM)

Q: What about the solubility (physchem [7]; 10% hpbcd in water) of the same molecule?
A: 1980 µg/mL (≈ 4.76 mM)

Q: What about the solubility (physchem [7]; ethanol, cmc, hpbcd, organic solvent or mixture) of the same molecule?
A: 12600 µg/mL (≈ 30.2 mM)

Q: And the solubility (physchem [7]; water)?
A: 40 µg/mL (≈ 0.0961 mM)

Q: Which solubility ([8]; 9.88% hpbetacd + 0.12% cmc, 9.88% (w/v) HPβCD and 0.12% (w/v) CMC, read-out: S3 solubility) does the source give for `Clc1ccc(COC(Cn2ccnc2)c2ccc(Cl)cc2Cl)cc1` (centres unmarked) [Econazole, econazole] here?
A: 5200 µg/mL

Q: What about the solubility ([8]; 9.88% hpbetacd + 0.12% hpmc, 9.88% (w/v) HPβCD and 0.12% (w/v) HPMC, read-out: S4 solubility) of the same molecule?
A: 6320 µg/mL

Q: What about the solubility ([8]; 9.88% hpbetacd + 0.12% pvp, 9.88% (w/v) HPβCD and 0.12% (w/v) PVP, read-out: S2 solubility) of the same molecule?
A: 5570 µg/mL

Q: And the solubility ([8]; 10% hpbetacd, 10% (w/v) HPβCD, read-out: S1 solubility)?
A: 4860 µg/mL (≈ 12.7 mM)

Q: And the solubility (physchem [1]; 0.25% cmc + 10% hpbetacd)?
A: 7410 µg/mL

Q: And the solubility (physchem [1]; aqueous 0.25% cmc)?
A: 600 µg/mL (≈ 1.57 mM)

Q: What about the solubility (physchem [1]; aqueous 10% hpbetacd) of the same molecule?
A: 4860 µg/mL (≈ 12.7 mM)

Q: What about the solubility (physchem [1]; water) of the same molecule?
A: 570 µg/mL (≈ 1.49 mM)

Q: What about the solubility at 72 h (physchem [2]; 0.25% pvp, 10% hpβcd) of the same molecule?
A: 5650 µg/mL (≈ 14.8 mM)

Q: What about the solubility at 72 h (physchem [2]; 10% hpβcd ms 0.7) of the same molecule?
A: 5220 µg/mL (≈ 13.7 mM)

Q: And the solubility at 72 h (physchem [2]; aqueous 0.25% pvp)?
A: 640 µg/mL (≈ 1.68 mM)

Q: What about the solubility at 72 h (physchem [2]; water) of the same molecule?
A: 570 µg/mL (≈ 1.49 mM)

Q: Which results are given for `C[C@]12CC[C@@H]3c4ccc(O)cc4CC[C@H]3[C@@H]1CC[C@@H]2O` [17β-Estradiol, 17β-estradiol]?
A: ΔH ([9]; PVP 0.00% w/v): -17 kcal/mol; ΔS ([9]; PVP 0.00% w/v): -151 J mol^-1 K^-1; ΔH ([9]; PVP 0.10% w/v): -18 kcal/mol; ΔS ([9]; PVP 0.10% w/v): -166 J mol^-1 K^-1; ΔH ([9]; PVP 0.25% w/v): -21.4 kcal/mol; ΔS ([9]; PVP 0.25% w/v): -213 J mol^-1 K^-1; ΔH ([9]; PVP 0.50% w/v): -19.4 kcal/mol; ΔS ([9]; PVP 0.50% w/v): -185 J mol^-1 K^-1

Q: Which solubility (physchem [1]; 0.25% cmc + 10% hpbetacd) does the source give for `CC1(C)O[C@@H]2C[C@H]3[C@@H]4CCC5=CC(=O)C=C[C@]5(C)[C@@]4(F)[C@@H](O)C[C@]3(C)[C@]2(C(=O)CO)O1` [Triamcinolone acetonide, triamcinolone acetonide] here?
A: 2580 µg/mL

Q: And the solubility (physchem [1]; aqueous 0.25% cmc)?
A: 70 µg/mL (≈ 0.161 mM)

Q: What about the solubility (physchem [1]; aqueous 10% hpbetacd) of the same molecule?
A: 2090 µg/mL (≈ 4.81 mM)

Q: And the solubility (physchem [1]; water)?
A: 30 µg/mL (≈ 0.069 mM)

Q: For `COc1cc(C=O)ccc1O` [Vanillin], which solubility (physchem [5]; 0.25% hpmc + 10% hpβcd) is on record?
A: 26500 µg/mL

Q: What about the solubility ratio (physchem [5]; HPβCD with CMC / HPβCD without polymer (S6)) of the same molecule?
A: 1.09

Q: What about the solubility ratio (physchem [5]; HPβCD with HPMC / HPβCD without polymer (S8)) of the same molecule?
A: 1.06

Q: What about the solubility (physchem [5]; aqueous 0.25% cmc) of the same molecule?
A: 13700 µg/mL (≈ 90 mM)

Q: And the solubility (physchem [5]; aqueous 0.25% cmc, 10% hpβcd)?
A: 27300 µg/mL (≈ 179 mM)

Q: What about the solubility (physchem [5]; aqueous 0.25% hpmc) of the same molecule?
A: 17100 µg/mL (≈ 112 mM)

Q: What about the solubility (physchem [5]; aqueous 0.25% pvp) of the same molecule?
A: 11500 µg/mL (≈ 75.6 mM)

Q: And the solubility (physchem [5]; aqueous 10% hpβcd)?
A: 25000 µg/mL (≈ 164 mM)

Q: And the solubility (physchem [5]; water)?
A: 13900 µg/mL (≈ 91.4 mM)
